Several values for one entry are separate records, joined by “and”; a condition that tells them apart may be missing. Equal entries are not always repeated.
What was measured:
[1] = system: CHO cell line that expresses an antibody; test: Batch experiment with the substances according to the invention (Example 1); format: cell-based, Chinese hamster; conditions: batch mode, substance 0.5-1 g/l, basal medium glucose 4.7 g/l, glutamine […]
Experimental: Cells were stored in the gas phase of liquid nitrogen. One to two ampoules were thawed in nutrient medium preheated to 37° C. and transferred to spinner bottles, shaking flasks or T-bottles. In the first few days of cultivation the medium was changed, depending on the clone.
Depending on the clone, cells were split either every second day or every third day or after two and three days alternately into new medium, i.e. a portion of the cell suspension was removed from culture and a smaller portion of the cell suspension was reused as inoculum for the next culture. This inoculum was made up with fresh prewarmed nutrient medium. Cells were incubated at 37° C. in an incubator with a CO2 atmosphere. An alternative for incubating cells was cultivation in an incubation chamber at 37° C., in this way cells were held in culture for several passages. A passage means a cultivation time of two to three days. At various points of time, cell suspension was taken from strain maintenance and used as inoculum for experiments. The experiments were carried out in various cultivation systems, for example in spinner bottles, T-bottles, shaking flasks, culture tubes or in controlled bioreactors.
(§1) Feed took place at regular intervals.

[2] = system: CHO cell line that expresses an antibody; test: Fed-batch experiment with the substances according to the invention (Example 2, Table 2); format: cell-based, Chinese hamster; design: Viabil.: concentration or dose not given beside the values
Source text: as §1

Work on `NCCC[C@H](N)C(=O)O` [Ornithine] yielded a Gln ([1]; day 0) of 1.53 mM, a Glucose ([1]; day 0) of 4.69 g/L and a Lactate ([1]; day 0) of 0 g/L. For the same compound, the “Specific Glutamin consumption (Gln/VCD)” value ([1]; day 0) was 1.49, the “Specific ammonia production (NH4/VCD)” value ([1]; day 0) was 1.18 and the “Specific glucose consumption (Gluc/VCD)” value ([1]; day 0) was 4.55. For the same compound, the “Specific lactate production (Lac/VCD)” value ([1]; day 0) was 0.00, the Viabil. ([1]; day 0) was 96% and the Gln ([1]; day 3) was 0.92 mM. For the same compound, the Glucose ([1]; day 3) was 4.24 g/L, the Lactate ([1]; day 3) was 0.71 g/L and the “Specific Glutamin consumption (Gln/VCD)” value ([1]; day 3) was 0.15. The “Specific ammonia production (NH4/VCD)” value ([1]; day 3) was 0.29, the “Specific glucose consumption (Gluc/VCD)” value ([1]; day 3) was 0.67 and the “Specific lactate production (Lac/VCD)” value ([1]; day 3) was 0.11. For the same compound, the Viabil. ([1]; day 3) was 97%, the Gln ([1]; day 6) was 0.11 mM and the Glucose ([1]; day 6) was 2.7 g/L. For the same compound, the “Specific Glutamin consumption (Gln/VCD)” value ([1]; day 6) was 0.00, the “Specific ammonia production (NH4/VCD)” value ([1]; day 6) was 0.06 and the “Specific glucose consumption (Gluc/VCD)” value ([1]; day 6) was 0.06. For the same compound, the “Specific lactate production (Lac/VCD)” value ([1]; day 6) was 0.02, the Viabil. ([1]; day 6) was 98% and the Gln ([1]; day 8) was 0.37 mM. For the same compound, the “Specific Glutamin consumption (Gln/VCD)” value ([1]; day 8) was 0.02, the “Specific ammonia production (NH4/VCD)” value ([1]; day 8) was 0.14 and the “Specific glucose consumption (Gluc/VCD)” value ([1]; day 8) was 0.09. The “Specific lactate production (Lac/VCD)” value ([1]; day 8) was 0.05, the Viabil. ([1]; day 8) was 89% and the Gln ([1]; day 11) was 0.46 mM. The Glucose ([1]; day 11) was 0.53 g/L, the Lactate ([1]; day 11) was 1.26 g/L and the “Specific Glutamin consumption (Gln/VCD)” value ([1]; day 11) was 0.03. The “Specific ammonia production (NH4/VCD)” value ([1]; day 11) was 0.22, the “Specific glucose consumption (Gluc/VCD)” value ([1]; day 11) was 0.04 and the “Specific lactate production (Lac/VCD)” value ([1]; day 11) was 0.09. For the same compound, the Viabil. ([1]; day 11) was 60%, the Viabil. ([2]; day 0, fed-batch) was 91% and the Viabil. ([2]; day 2, fed-batch) was 98% and 97%. The Viabil. ([2]; day 5, fed-batch) was 96% and the Viabil. ([2]; day 8, fed-batch) was 94%.

`O=C(O)CCCCC(=O)O` [Adipic acid] gave a Gln ([1]; day 0) of 1.53 mM, a Glucose ([1]; day 0) of 4.69 g/L and a Lactate ([1]; day 0) of 0 g/L. For the same compound, the NH4 ([1]; day 0) was 1.22 mM, the “Specific Glutamin consumption (Gln/VCD)” value ([1]; day 0) was 1.49 and the “Specific ammonia production (NH4/VCD)” value ([1]; day 0) was 1.18. For the same compound, the “Specific glucose consumption (Gluc/VCD)” value ([1]; day 0) was 4.55, the “Specific lactate production (Lac/VCD)” value ([1]; day 0) was 0.00 and the “Total Cell Density TCD” value ([1]; day 0) was 1.07 E5/ml. For the same compound, the Viabil. ([1]; day 0) was 96%, the “Viable Cell Density (VCD)” value ([1]; day 0) was 1.03 E5/ml and the Gln ([1]; day 3) was 0.86 mM. The Glucose ([1]; day 3) was 4.28 g/L, the Lactate ([1]; day 3) was 0.62 g/L and the NH4 ([1]; day 3) was 1.81 mM. For the same compound, the “Specific Glutamin consumption (Gln/VCD)” value ([1]; day 3) was 0.12, the “Specific ammonia production (NH4/VCD)” value ([1]; day 3) was 0.25 and the “Specific glucose consumption (Gluc/VCD)” value ([1]; day 3) was 0.60. For the same compound, the “Specific lactate production (Lac/VCD)” value ([1]; day 3) was 0.09, the “Total Cell Density TCD” value ([1]; day 3) was 7.2 E5/ml and the Viabil. ([1]; day 3) was 99%. For the same compound, the “Viable Cell Density (VCD)” value ([1]; day 3) was 7.1 E5/ml, the Gln ([1]; day 6) was 0.22 mM and the Glucose ([1]; day 6) was 2.95 g/L. The Lactate ([1]; day 6) was 0.93 g/L, the NH4 ([1]; day 6) was 2.67 mM and the “Specific Glutamin consumption (Gln/VCD)” value ([1]; day 6) was 0.01. For the same compound, the “Specific ammonia production (NH4/VCD)” value ([1]; day 6) was 0.07, the “Specific glucose consumption (Gluc/VCD)” value ([1]; day 6) was 0.07 and the “Specific lactate production (Lac/VCD)” value ([1]; day 6) was 0.02. The “Total Cell Density TCD” value ([1]; day 6) was 41.6 E5/ml, the Viabil. ([1]; day 6) was 98% and the “Viable Cell Density (VCD)” value ([1]; day 6) was 40.6 E5/ml. The Gln ([1]; day 8) was 0.32 mM, the Glucose ([1]; day 8) was 1.94 g/L and the Lactate ([1]; day 8) was 0.95 g/L. The NH4 ([1]; day 8) was 3 mM, the “Specific Glutamin consumption (Gln/VCD)” value ([1]; day 8) was 0.02 and the “Specific ammonia production (NH4/VCD)” value ([1]; day 8) was 0.20. For the same compound, the “Specific glucose consumption (Gluc/VCD)” value ([1]; day 8) was 0.13, the “Specific lactate production (Lac/VCD)” value ([1]; day 8) was 0.06 and the “Total Cell Density TCD” value ([1]; day 8) was 17.1 E5/ml. For the same compound, the Viabil. ([1]; day 8) was 87%, the “Viable Cell Density (VCD)” value ([1]; day 8) was 14.9 E5/ml and the Gln ([1]; day 11) was 0.49 mM. The Glucose ([1]; day 11) was 0.89 g/L, the Lactate ([1]; day 11) was 1.28 g/L and the NH4 ([1]; day 11) was 3.38 mM. The “Specific Glutamin consumption (Gln/VCD)” value ([1]; day 11) was 0.05, the “Specific ammonia production (NH4/VCD)” value ([1]; day 11) was 0.32 and the “Specific glucose consumption (Gluc/VCD)” value ([1]; day 11) was 0.08. The “Specific lactate production (Lac/VCD)” value ([1]; day 11) was 0.12, the “Total Cell Density TCD” value ([1]; day 11) was 23 E5/ml and the Viabil. ([1]; day 11) was 46%. For the same compound, the “Viable Cell Density (VCD)” value ([1]; day 11) was 10.6 E5/ml, the “Total Cell Density TCD” value ([2]; day 0, fed-batch) was 1.5 E5/ml and the Viabil. ([2]; day 0, fed-batch) was 91%. For the same compound, the “Viable Cell Density (VCD)” value ([2]; day 0, fed-batch) was 1.37 E5/ml, the “Total Cell Density TCD” value ([2]; day 2, fed-batch) was 4.4 E5/ml and the Viabil. ([2]; day 2, fed-batch) was 98%. For the same compound, the “Viable Cell Density (VCD)” value ([2]; day 2, fed-batch) was 4.3 E5/ml, the “Total Cell Density TCD” value ([2]; day 5, fed-batch) was 12 E5/ml and 11.8 E5/ml and the Viabil. ([2]; day 5, fed-batch) was 98% and 95%. The “Viable Cell Density (VCD)” value ([2]; day 5, fed-batch) was 11.7 E5/ml and 11.2 E5/ml, the “Total Cell Density TCD” value ([2]; day 8, fed-batch) was 40 E5/ml and 36.3 E5/ml and the Viabil. ([2]; day 8, fed-batch) was 91% and 92%.

`NC(=O)NCCC[C@H](N)C(=O)O` [Citrulline] gave a Gln ([1]; day 0) of 1.53 mM, a Glucose ([1]; day 0) of 4.69 g/L and a Lactate ([1]; day 0) of 0 g/L. For the same compound, the NH4 ([1]; day 0) was 1.22 mM, the “Specific Glutamin consumption (Gln/VCD)” value ([1]; day 0) was 1.49 and the “Specific ammonia production (NH4/VCD)” value ([1]; day 0) was 1.18. For the same compound, the “Specific glucose consumption (Gluc/VCD)” value ([1]; day 0) was 4.55, the “Specific lactate production (Lac/VCD)” value ([1]; day 0) was 0.00 and the “Total Cell Density TCD” value ([1]; day 0) was 1.07 E5/ml. The Viabil. ([1]; day 0) was 96%, the “Viable Cell Density (VCD)” value ([1]; day 0) was 1.03 E5/ml and the Gln ([1]; day 3) was 0.82 mM. For the same compound, the Glucose ([1]; day 3) was 4.14 g/L, the Lactate ([1]; day 3) was 0.83 g/L and the NH4 ([1]; day 3) was 1.87 mM. For the same compound, the “Specific Glutamin consumption (Gln/VCD)” value ([1]; day 3) was 0.11, the “Specific ammonia production (NH4/VCD)” value ([1]; day 3) was 0.25 and the “Specific glucose consumption (Gluc/VCD)” value ([1]; day 3) was 0.55. The “Specific lactate production (Lac/VCD)” value ([1]; day 3) was 0.11, the “Total Cell Density TCD” value ([1]; day 3) was 7.7 E5/ml and the Viabil. ([1]; day 3) was 97%. The “Viable Cell Density (VCD)” value ([1]; day 3) was 7.5 E5/ml, the Gln ([1]; day 6) was 0.27 mM and the Glucose ([1]; day 6) was 2.62 g/L. The Lactate ([1]; day 6) was 1.16 g/L, the NH4 ([1]; day 6) was 2.66 mM and the “Specific Glutamin consumption (Gln/VCD)” value ([1]; day 6) was 0.01. The “Specific ammonia production (NH4/VCD)” value ([1]; day 6) was 0.07, the “Specific glucose consumption (Gluc/VCD)” value ([1]; day 6) was 0.07 and the “Specific lactate production (Lac/VCD)” value ([1]; day 6) was 0.03. For the same compound, the “Total Cell Density TCD” value ([1]; day 6) was 39.6 E5/ml, the Viabil. ([1]; day 6) was 96% and the “Viable Cell Density (VCD)” value ([1]; day 6) was 37.9 E5/ml. The Gln ([1]; day 8) was 0.37 mM, the Glucose ([1]; day 8) was 1.7 g/L and the Lactate ([1]; day 8) was 1.12 g/L. For the same compound, the NH4 ([1]; day 8) was 2.86 mM, the “Specific Glutamin consumption (Gln/VCD)” value ([1]; day 8) was 0.03 and the “Specific ammonia production (NH4/VCD)” value ([1]; day 8) was 0.20. The “Specific glucose consumption (Gluc/VCD)” value ([1]; day 8) was 0.12, the “Specific lactate production (Lac/VCD)” value ([1]; day 8) was 0.08 and the “Total Cell Density TCD” value ([1]; day 8) was 17.8 E5/ml. The Viabil. ([1]; day 8) was 82%, the “Viable Cell Density (VCD)” value ([1]; day 8) was 14.6 E5/ml and the Gln ([1]; day 11) was 0.51 mM. The Glucose ([1]; day 11) was 0.7 g/L, the Lactate ([1]; day 11) was 1.48 g/L and the NH4 ([1]; day 11) was 3.26 mM. For the same compound, the “Specific Glutamin consumption (Gln/VCD)” value ([1]; day 11) was 0.06, the “Specific ammonia production (NH4/VCD)” value ([1]; day 11) was 0.40 and the “Specific glucose consumption (Gluc/VCD)” value ([1]; day 11) was 0.09. For the same compound, the “Specific lactate production (Lac/VCD)” value ([1]; day 11) was 0.18, the “Total Cell Density TCD” value ([1]; day 11) was 21.3 E5/ml and the Viabil. ([1]; day 11) was 38%. The “Viable Cell Density (VCD)” value ([1]; day 11) was 8.2 E5/ml.

From patent publication US8426202B2, “Cell culture medium” (Cellca GmbH, priority 2005, dated 2013)
